# Assay results as given in PubChem BioAssay AID1259407 (Chemical Carcinogenesis Research Information System (CCRIS), 2018).
# Active and inactive are the calls of the source. How the calls were made is not given here.
# System: CCRIS mutagenicity, Ames/micronucleus/aberration tests
# Test: CCRIS mutagenicity studies
# [1] = Test System: AMES SALMONELLA TYPHIMURIUM, Strain/Indicator: TA98, Metabolic Activation: NONE, Method: STANDARD PLATE
# [2] = Test System: AMES SALMONELLA TYPHIMURIUM, Strain/Indicator: TA100, Metabolic Activation: NONE, Method: STANDARD PLATE
smiles,measurement,setting,value
c1ccc2c(c1)cc1c3c2ccc2cccc(c23)C2NC12 (configuration not stated),mutagenic call,[1],active; positive
same,mutagenic call,"Test System: AMES SALMONELLA TYPHIMURIUM, Strain/Indicator: TA100, Metabolic Activation: MICROSOMAL EPOXIDE HYDROLASE, Method: PREINCUBATION",active; positive
same,mutagenic call,"Test System: AMES SALMONELLA TYPHIMURIUM, Strain/Indicator: TA100, Metabolic Activation: NONE, Method: PREINCUBATION",active; positive
same,mutagenic call,[2],active; positive
same,mutagenic call,"Test System: CHINESE HAMSTER V-79, Strain/Indicator: V-79/6-THIOGUANINE, Metabolic Activation: NONE, Method: REPLATING",active; positive
same,mutagenic call,"Test System: CHINESE HAMSTER V-79, Strain/Indicator: V-79/6-THIOGUANINE, Metabolic Activation: NONE, Method: STANDARD PLATE",active; positive
same,mutagenic call,"Test System: E. COLI, Strain/Indicator: WP2UVRA, Metabolic Activation: NONE, Method: STANDARD PLATE",active; positive
C=CCN=C=S,mutagenic call,"End Point: IN VITRO CHROMOSOMAL ABERRATIONS, Test System: CHINESE HAMSTER OVARY CELLS, Metabolic Activation: NONE",active; positive
same,mutagenic call,"End Point: IN VITRO CHROMOSOMAL ABERRATIONS, Test System: CHINESE HAMSTER OVARY CELLS, Metabolic Activation: RAT, LIVER, S-9, AROCLOR 1254",active; positive
same,mutagenic call,"End Point: IN VITRO CHROMOSOMAL ABERRATIONS, Test System: CHINESE HAMSTER OVARY CELLS, Metabolic Activation: RAT. LIVER, S-9, AROCLOR 1254",inactive; negative
same,mutagenic call,"Test System: AMES SALMONELLA TYPHIMURIUM, Strain/Indicator: TA97, Metabolic Activation: NONE, Method: PREINCUBATION",inactive; negative
same,mutagenic call,"Test System: AMES SALMONELLA TYPHIMURIUM, Strain/Indicator: TA97, Metabolic Activation: NONE, Method: PREINCUBATION (120 MIN)",inactive; negative
same,mutagenic call,"Test System: AMES SALMONELLA TYPHIMURIUM, Strain/Indicator: TA97, Metabolic Activation: RAT, LIVER, S-9, AROCLOR 1254, Method: PREINCUBATION",inactive; negative
same,mutagenic call,"Test System: AMES SALMONELLA TYPHIMURIUM, Strain/Indicator: TA97, Metabolic Activation: S-9, Method: PREINCUBATION (120 MIN)",inactive; negative
same,mutagenic call,"Test System: AMES SALMONELLA TYPHIMURIUM, Strain/Indicator: TA98, Metabolic Activation: NONE, Method: PREINCUBATION (120 MIN)",inactive; negative
same,mutagenic call,[1],inactive; negative
same,mutagenic call,"Test System: AMES SALMONELLA TYPHIMURIUM, Strain/Indicator: TA98, Metabolic Activation: RAT LIVER S-9, AROCLOR 1254, Method: STANDARD PLATE",active; positive
same,mutagenic call,"Test System: AMES SALMONELLA TYPHIMURIUM, Strain/Indicator: TA98, Metabolic Activation: S-9, Method: PREINCUBATION (120 MIN)",inactive; negative
same,mutagenic call,"Test System: AMES SALMONELLA TYPHIMURIUM, Strain/Indicator: TA98, Metabolic Activation: S-9, Method: STANDARD PLATE",inactive; negative
same,mutagenic call,"Test System: AMES SALMONELLA TYPHIMURIUM, Strain/Indicator: TA100, Metabolic Activation: NONE, Method: PREINCUBATION (20, 60 OR 120 MIN)",inactive; negative
same,mutagenic call,"Test System: AMES SALMONELLA TYPHIMURIUM, Strain/Indicator: TA100, Metabolic Activation: NONE, Method: PREINCUBATION (120 MIN)",inactive; negative
same,mutagenic call,[2],inactive; negative
same,mutagenic call,"Test System: AMES SALMONELLA TYPHIMURIUM, Strain/Indicator: TA100, Metabolic Activation: RAT LIVER S-9, AROCLOR 1254, Method: STANDARD PLATE",active; positive
same,mutagenic call,"Test System: AMES SALMONELLA TYPHIMURIUM, Strain/Indicator: TA100, Metabolic Activation: RAT, LIVER, S-9, AROCLOR 1254 (3.8 MG PROTEIN/ML), Method: PREINCUBATION (60 OR 120 MIN)",active; positive
same,mutagenic call,"Test System: AMES SALMONELLA TYPHIMURIUM, Strain/Indicator: TA100, Metabolic Activation: RAT, LIVER, S-9, AROCLOR 1254 (3.8 OR 11.4 MG PROTEIN/ML), Method: PREINCUBATION (20 MIN)",inactive; negative
same,mutagenic call,"Test System: AMES SALMONELLA TYPHIMURIUM, Strain/Indicator: TA100, Metabolic Activation: RAT, LIVER, S-9, AROCLOR 1254 (11.4 MG PROTEIN/ML), Method: PREINCUBATION (60 MIN)",inactive; negative
same,mutagenic call,"Test System: AMES SALMONELLA TYPHIMURIUM, Strain/Indicator: TA100, Metabolic Activation: RAT, LIVER, S-9, AROCLOR 1254 (11.4 MG PROTEIN/ML), Method: PREINCUBATION (120 MIN)",active; positive
same,mutagenic call,"Test System: AMES SALMONELLA TYPHIMURIUM, Strain/Indicator: TA100, Metabolic Activation: S-9, Method: PREINCUBATION (120 MIN)",inactive; negative
same,mutagenic call,"Test System: AMES SALMONELLA TYPHIMURIUM, Strain/Indicator: TA100, Metabolic Activation: S-9, Method: STANDARD PLATE",inactive; negative
same,mutagenic call,"Test System: AMES SALMONELLA TYPHIMURIUM, Strain/Indicator: TA102, Metabolic Activation: NONE, Method: PREINCUBATION",inactive; negative
same,mutagenic call,"Test System: AMES SALMONELLA TYPHIMURIUM, Strain/Indicator: TA102, Metabolic Activation: RAT, LIVER, S-9, AROCLOR 1254, Method: PREINCUBATION",inactive; negative
same,mutagenic call,"Test System: UDS RAT HEPATOCYTES, Strain/Indicator: THY-INCORP, Metabolic Activation: IN VIVO, Method: AUTORADIOGRAPHY",inactive; negative
